Data set [1] relates to Respiratory syncytial virus. Nature of the data set: Antiviral activity against RSV long A with F1 protein K394R mutation in HEp2 cells. Format: functional, organism-based.
A short description of data set [2]: Cytotoxicity against human HEp2 cells. The class given is cell-based, HEp-2.
The nature of data set [3]: Therapeutic index, ratio of CC50 for HEp2 to EC50 for RSV long A. The settings on record: human, HEp2 cells; read-out: Ratio CC50/EC50.

pEC50: −log10 of the molar value.

In data set [1], `O=c1n(Cc2nc3ccccc3n2CCCCO)c2cnccc2n1C1CC1` gave a pEC50 of less than 4.70.
The compound `CC(C)CCn1c(Cn2c(=O)n(C(C)C)c3ccccc32)nc2ccc(C(=O)O)cc21` showed a pEC50 in data set [1] of 3.62. The compound further had a 50% cytotoxic concentration (CC50) in data set [2] of 125 µM. Besides, in data set [3], the selectivity ratio came out at 0.525.
Compound `CC(C)CCn1c(Cn2c(=O)n(C(C)C)c3ccccc32)nc2ccc(CN)cc21` showed a pEC50 in data set [1] of 7.02. Also, in data set [2], half-maximal cytotoxicity (CC50) was put at 28.1 µM. Also, the selectivity ratio in data set [3] amounted to 296.
`CNCc1ccc2nc(Cn3c(=O)n(C(C)C)c4ccccc43)n(CCC(C)C)c2c1` had a negative-log EC50 (pEC50) in data set [1] of 3.73. This compound also had a CC50 in data set [2] of 4.81 µM. In addition, the selectivity ratio in data set [3] was 0.026.
Regarding `CC(C)CCn1c(Cn2c(=O)n(C(C)C)c3ccccc32)nc2ccc(CN(C)C)cc21`, the pEC50 in data set [1] is 3.74. The compound also gave a CC50 in data set [2] of 26.7 µM. The selectivity ratio in data set [3] was 0.026.
In the same order, the values of `CC(C)CCn1c(Cn2c(=O)n(C(C)C)c3ccccc32)nc2ccc(CCN)cc21` are 5.15, 57 µM and 8.02.
`CC(C)CCn1c(Cn2c(=O)n(C(C)C)c3ccccc32)nc2c(CCCN)cccc21` had a pEC50 in data set [1] of 3.67. Further, the CC50 in data set [2] came out at 2.34 µM. Moreover, the selectivity ratio in data set [3] is 0.011.
The corresponding values for `CC(=O)c1ccc2c(c1)nc(Cn1c(=O)n(C)c3ccccc31)n2CCC(C)C` are 6.71, 5.2 µM and 39.8.
In the same order, the values of `CC(C)CCn1c(Cn2c(=O)n(C(C)C)c3ccccc32)nc2cc(C(N)=O)ccc21` are 6.78, 23.4 µM and 141.
As to `CC(C)CCn1c(Cn2c(=O)n(C(C)C)c3ccccc32)nc2cc(C(=O)N(C)C)ccc21`, the pEC50 in data set [1] is 4.61. Also, the CC50 in data set [2] came out at 25.6 µM. Also, in data set [3], the selectivity ratio was determined as 1.03.
For `CC(C)CCn1c(Cn2c(=O)n(CC(=O)OC(C)(C)C)c3ccccc32)nc2cc(C(=N)N)ccc21`, the negative logarithm of the EC50 (pEC50) in data set [1] is 8.05. Besides, in data set [2], the cytotoxic concentration (CC50) was found to be 7.9 µM. For the same compound, the selectivity ratio in data set [3] was determined as 878.
In the same order, the values of `CC(C)CCn1c(Cn2c(=O)n(CC(=O)O)c3ccccc32)nc2cc(C(=N)N)ccc21` are 7.51, 173 µM and 5570.
As to `C=C(C)n1c(=O)n(Cc2nc3cc(/C(N)=N\O)ccc3n2CCC(C)C)c2ccccc21`, the pEC50 in data set [1] was 8.30. For the same compound, the cytotoxic concentration (CC50) in data set [2] is 3.47 µM. The selectivity ratio in data set [3] amounted to 694.
Regarding `CC(C)CCn1c(Cn2c(=O)n(C(C)C)c3ccccc32)nc2cc(CF)ccc21`, the pEC50 in data set [1] is 7.33. For the same compound, in data set [2], it took 37.3 µM to reach half-maximal cytotoxicity (CC50). In addition, the selectivity ratio in data set [3] was 793.
`CC(C)CCn1c(Cn2c(=O)n(C(C)C)c3ccccc32)nc2cc(N)ccc21` gave a negative logarithm of the EC50 (pEC50) in data set [1] of 6.90. In data set [2], this compound came in with a CC50 of 32.2 µM. Moreover, the selectivity ratio in data set [3] was determined as 258.
Turning to `CC(C)CCn1c(Cn2c(=O)n(CC(=O)OC(C)(C)C)c3ccccc32)nc2cc(/C(N)=N\O)ccc21`, the negative logarithm of the EC50 (pEC50) in data set [1] is 7.80. In addition, it took 19.8 µM to reach half-maximal cytotoxicity in data set [2] (CC50). Further, the selectivity ratio in data set [3] is 1240.
In turn, `CC(C)CCn1c(Cn2c(=O)n(C(C)C)c3ccccc32)nc2cc(CO)ccc21` had a pEC50 in data set [1] of 7.30. Half-maximal cytotoxicity in data set [2] (CC50) was put at 31.6 µM. Besides, the selectivity ratio in data set [3] was 632.
Consider `CC(C)CCn1c(Cn2c(=O)n(C(C)C)c3ccccc32)nc2cccc(CO)c21`, for which, in data set [1], the pEC50 was 3.61. This compound also returned a CC50 in data set [2] of 246 µM. In data set [3], the selectivity ratio stood at 1.
On to `CC(C)CCn1c(Cn2c(=O)n(C(C)C)c3ccccc32)nc2cccc(N=[N+]=[N-])c21`, for which the pEC50 in data set [1] was 5.43. The compound also yielded a CC50 in data set [2] of 57.9 µM. Besides, the selectivity ratio in data set [3] is 15.6.
The compound `CC(C)CCn1c(Cn2c(=O)n(C(C)C)c3ccccc32)nc2cc(Br)ccc21` showed a pEC50 in data set [1] of 7.74. Also, in data set [2], the midpoint of cytotoxicity, the CC50, lay at 18.1 µM. The selectivity ratio in data set [3] is 1010.
For the compound `CC(C)CCn1c(Cn2c(=O)n(C(C)C)c3ccccc32)nc2cc(C#N)ccc21`, the negative logarithm of the EC50 (pEC50) in data set [1] is 6.32. In data set [2], the CC50 worked out at 7.93 µM. In data set [3], the selectivity ratio was 16.6.
In the same order, the values of `CCc1ccc2c(c1)nc(Cn1c(=O)n(C(C)C)c3ccccc31)n2CCC(C)C` are 6.16, 18.5 µM and 26.8.
`CC(C)CCn1c(Cn2c(=O)n(C(C)C)c3ccccc32)nc2cc(-c3ncon3)ccc21` showed a pEC50 in data set [1] of 4.67. This compound also showed a CC50 in data set [2] of 223 µM. Besides, in data set [3], the selectivity ratio was 10.3.
Regarding `CC(C)CCn1c(Cn2c(=O)n(C(C)C)c3ccccc32)nc2cc(CN)ccc21`, the pEC50 in data set [1] was 8.70. In addition, in data set [2], the CC50 was 3.92 µM. Moreover, the selectivity ratio in data set [3] is 1960.
`CNCc1ccc2c(c1)nc(Cn1c(=O)n(C(C)C)c3ccccc31)n2CCC(C)C` showed a pEC50 in data set [1] of 7.24. The compound further showed a CC50 in data set [2] of 1.48 µM. Besides, the selectivity ratio in data set [3] came out at 26.
Consider `CC(C)CCn1c(Cn2c(=O)n(C(C)C)c3ccccc32)nc2cc(CNC3CC3)ccc21`, for which the pEC50 in data set [1] was 6.44. This compound also gave a CC50 in data set [2] of 17.2 µM. In addition, the selectivity ratio in data set [3] worked out at 47.3.
For `CC(C)CCn1c(Cn2c(=O)n(CC(=O)OC(C)(C)C)c3ccccc32)nc2cc(C#N)ccc21`, in data set [1], the negative logarithm of the EC50 (pEC50) was 5.59. In data set [2], this compound had a CC50 of 32.2 µM. The selectivity ratio in data set [3] was 12.6.
With `CC(C)CCn1c(Cn2c(=O)n(C(C)C)c3ccccc32)nc2cc(CC#N)ccc21`, in data set [1], the pEC50 was 6.93. Besides, the CC50 in data set [2] came out at 13.3 µM. The selectivity ratio in data set [3] turned out to be 114.
The corresponding values for `C=C(C)n1c(=O)n(Cc2nc3cc(C(=O)O)ccc3n2CCC(C)C)c2ccccc21` are 3.58, 30 µM and 0.11.
`CC(C)CCn1c(Cn2c(=O)n(C(C)C)c3ccccc32)nc2cc(C(=O)O)ccc21` showed a pEC50 in data set [1] of 3.62. Moreover, the CC50 in data set [2] was found to be 17.3 µM. Also, the selectivity ratio in data set [3] came out at 0.07.
In data set [1], `CC(C)CCn1c(Cn2c(=O)n(C(C)C)c3ccccc32)nc2cc(-c3nn[nH]n3)ccc21` gave a pEC50 of 3.65. The midpoint of cytotoxicity in data set [2], the CC50, lay at 2 µM. For the same compound, the selectivity ratio in data set [3] was 0.009.
Regarding `CC(=O)NCc1ccc2c(c1)nc(Cn1c(=O)n(C(C)C)c3ccccc31)n2CCC(C)C`, the pEC50 in data set [1] is 6.20. The CC50 in data set [2] was 178 µM. Also, the selectivity ratio in data set [3] came out at 282.
Compound `CC(C)CCn1c(Cn2c(=O)n(C(C)C)c3ccccc32)nc2cc(CNS(C)(=O)=O)ccc21` gave a pEC50 in data set [1] of 6.14. For the same compound, half-maximal cytotoxicity in data set [2] (CC50) was put at 30.8 µM. Besides, the selectivity ratio in data set [3] came out at 42.4.
Regarding `CC(C)CCn1c(Cn2c(=O)n(C(C)C)c3ccccc32)nc2cc(C(C)(C)N)ccc21`, the pEC50 in data set [1] was 6.16. Further, the CC50 in data set [2] worked out at 3.27 µM. Also, the selectivity ratio in data set [3] is 4.71.
For `CC(C)CCn1c(Cn2c(=O)n(C(C)C)c3ccccc32)nc2cccc(CN)c21`, the pEC50 in data set [1] was 3.72. This compound returned a CC50 in data set [2] of 11 µM. Besides, in data set [3], the selectivity ratio is 0.058.
`COC(=O)c1cccc2nc(Cn3c(=O)n(C(C)C)c4ccccc43)n(CCC(C)C)c12` gave a pEC50 in data set [1] of 3.64. This compound also registered a CC50 in data set [2] of 25.3 µM. Besides, in data set [3], the selectivity ratio is 0.11.
In data set [1], `CC(C)CCn1c(Cn2c(=O)n(C(C)C)c3ccccc32)nc2ccc(C#N)cc21` showed a pEC50 of 7.36. In data set [2], this compound yielded a half-maximal cytotoxic concentration (CC50) of 10 µM. The selectivity ratio in data set [3] came out at 228.
For the compound `CC(C)CCn1c(Cn2c(=O)n(C(C)C)c3ccccc32)nc2cc(CCN)ccc21`, the pEC50 in data set [1] is 5.36. The compound further registered a half-maximal cytotoxic concentration (CC50) in data set [2] of 11 µM. Moreover, the selectivity ratio in data set [3] amounted to 2.54.
In the same order, the values of `CC(C)CCn1c(Cn2c(=O)n(C(C)C)c3ccccc32)nc2cc(CN(C)C)ccc21` are 3.74, 5.65 µM and 0.031.
Turning to `C=C(C)n1c(=O)n(Cc2nc3cc(C(=N)N)ccc3n2CCC(C)C)c2ccccc21`, the pEC50 in data set [1] is 8.40. This compound also gave a CC50 in data set [2] of 10.8 µM. In addition, in data set [3], the selectivity ratio is 2700.
`CC(C)CCn1c(Cn2c(=O)n(C(C)C)c3ccccc32)nc2ccc(C(N)=O)cc21` had a pEC50 in data set [1] of 3.91. In data set [2], the CC50 was 49.9 µM. In data set [3], the selectivity ratio was 0.406.
The corresponding values for `C=C(C)n1c(=O)n(Cc2nc3cc(C#N)ccc3n2CCC(C)C)c2ccccc21` are 7.24, 1.48 µM and 26.
The corresponding values for `C=C(C)n1c(=O)n(Cc2nc3cc(C(C)=O)ccc3n2CCC(C)C)c2ccccc21` are 6.75, 0.74 µM and 4.1.
In the same order, the values of `C=Cc1ccc2c(c1)nc(Cn1c(=O)n(C(C)C)c3ccccc31)n2CCC(C)C` are 6.20, 6.52 µM and 10.3.
With `CC(C)CCn1c(Cn2c(=O)n(C(C)C)c3ccccc32)nc2cc(/C(N)=N\O)ccc21`, the pEC50 in data set [1] is 6.95. Moreover, in data set [2], the CC50 came to 9.14 µM. The selectivity ratio in data set [3] worked out at 82.2.
`CC(C)CCn1c(Cn2c(=O)n(C)c3ccccc32)nc2cc(-c3nnn(C)n3)ccc21` showed a pEC50 in data set [1] of 3.62. It took 2.97 µM to reach half-maximal cytotoxicity in data set [2] (CC50). For the same compound, in data set [3], the selectivity ratio stood at 0.012.
For `COC(=O)c1ccc2c(c1)nc(Cn1c(=O)n(C(C)C)c3ccccc31)n2CCC(C)C`, the pEC50 in data set [1] is 3.64. Further, the CC50 in data set [2] is 33.7 µM. Also, in data set [3], the selectivity ratio is 0.15.
In data set [1], `CC(C)CCn1c(Cn2c(=O)n(C(C)C)c3ccccc32)nc2c(CCC#N)cccc21` gave a pEC50 of 3.63. The compound also yielded a CC50 in data set [2] of 2.24 µM. The selectivity ratio in data set [3] was 0.096.
For the compound `C=C(C)n1c(=O)n(Cc2nc3ccccc3n2CCC(C)C)c2ccccc21`, the negative-log EC50 (pEC50) in data set [1] is 8.40. Moreover, in data set [2], the CC50 is 24.6 µM. Moreover, the selectivity ratio in data set [3] was determined as 6160.
In data set [1], `CC(C)CCn1c(Cn2c(=O)n(C(C)C)c3ccccc32)nc2ccc(CO)cc21` had a pEC50 of 6.87. Besides, the half-maximal cytotoxic concentration (CC50) in data set [2] is 81.6 µM. Moreover, the selectivity ratio in data set [3] was determined as 609.
In turn, `N=C(N)c1ccc2nc(Cc3nc4ccc(C(=N)N)cc4[nH]3)[nH]c2c1` had a pEC50 in data set [1] of 4.00.

As usually defined, the pEC50 is the negative decadic logarithm of the EC50, by convention in mol/L. Read a high pEC50 as a low EC50. One may read the CC50 as the concentration that lowers cell viability or growth by half. High values mean lower toxicity to the cells, low ones greater toxicity to the cells.

The values are drawn from ChEMBL document CHEMBL1140659, “Respiratory syncytial virus fusion inhibitors. Part 5: Optimization of benzimidazole substitution patterns towards derivatives with improved activity” (Bioorg Med Chem Lett, 2007).
